ChEMBL document CHEMBL1201862, “PubChem BioAssay data set” (2004)
Structures can show the parent of a compound that is named as a salt. Each block holds one compound with its values, some of them ahead of it. Activity calls are given as the source filed them.

Experiments:
[1] = molecular target: Sphingosine 1-phosphate receptor 2 (Homo sapiens, UniProt O95136); assay: Dose Response Cell Based Assay for Agonists of the S1P2 Receptor. [Related pubchem assays: 729, 736, 843 ]; type: functional
Bcl-2-related protein A1 = molecular target: T1, Bcl-2-related protein A1 (Mus musculus, UniProt Q07440); type: functional;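 also: confirmatory dose–response counterscreen on Bfl-1, used to check hits from a UBC13 polyubiquitin inhibitor campaign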
T1 sequence (Q07440 whole entry): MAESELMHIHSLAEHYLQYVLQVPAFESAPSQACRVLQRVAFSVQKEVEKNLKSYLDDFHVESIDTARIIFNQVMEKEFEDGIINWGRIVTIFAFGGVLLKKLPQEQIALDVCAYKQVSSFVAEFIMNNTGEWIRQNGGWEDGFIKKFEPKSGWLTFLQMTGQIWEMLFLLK

[2] = molecular target: T2, Ubiquitin-conjugating enzyme E2 N (Homo sapiens, UniProt P61088); type: functional
T2 sequence (P61088 whole entry): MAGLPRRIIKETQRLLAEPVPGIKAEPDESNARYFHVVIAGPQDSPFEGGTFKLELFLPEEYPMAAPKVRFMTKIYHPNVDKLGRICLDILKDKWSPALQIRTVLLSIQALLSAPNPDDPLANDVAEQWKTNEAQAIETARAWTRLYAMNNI

[3] = molecular target: T2, Ubiquitin-conjugating enzyme E2 N; type: functional; remark: listed apart in the source
[4] = Dose-response inhibition of insulin secretion in a rat insulinoma line at 5 mM glucose (AID 1117331); type: functional, cell-based; conditions: INS-1E
[5] = cell lysis of Cryptococcus neoformans, alamar blue – dry powder, set 3, mechanism study for C. neoformans antifungal project, dose response (AID 743298); type: functional, organism-based
Protein skinhead-1 = molecular target: T3, Protein skinhead-1 (Caenorhabditis elegans, UniProt P34707); type: functional
T3 sequence (P34707 whole entry): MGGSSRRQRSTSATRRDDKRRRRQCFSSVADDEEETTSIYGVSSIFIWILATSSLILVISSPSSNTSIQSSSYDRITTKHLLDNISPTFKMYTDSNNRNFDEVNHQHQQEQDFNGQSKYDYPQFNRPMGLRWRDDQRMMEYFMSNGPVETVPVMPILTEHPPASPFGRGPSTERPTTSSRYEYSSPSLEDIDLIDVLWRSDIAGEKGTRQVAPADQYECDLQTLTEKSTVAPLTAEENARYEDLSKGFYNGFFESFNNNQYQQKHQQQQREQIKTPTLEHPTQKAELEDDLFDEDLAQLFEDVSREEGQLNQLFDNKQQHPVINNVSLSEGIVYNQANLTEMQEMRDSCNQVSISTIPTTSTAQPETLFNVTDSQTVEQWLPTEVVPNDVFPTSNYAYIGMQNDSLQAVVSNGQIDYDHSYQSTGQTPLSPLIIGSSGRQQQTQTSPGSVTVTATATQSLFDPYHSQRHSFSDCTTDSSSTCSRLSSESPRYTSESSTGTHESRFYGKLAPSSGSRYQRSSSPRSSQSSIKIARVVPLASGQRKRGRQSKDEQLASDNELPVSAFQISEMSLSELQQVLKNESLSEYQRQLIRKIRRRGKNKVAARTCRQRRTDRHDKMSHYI

[6] = Vero cell cytotoxicity, dose response, cytotoxicity control for Vif-APOBEC3G degradation inhibitor project, Vero cells (AID 1117358); type: functional; conditions: Human immunodeficiency virus 1, Vero
[7] = molecular target: T4, Sentrin-specific protease 8 (Homo sapiens, UniProt Q96LD8); type: functional
T4 sequence (Q96LD8 whole entry): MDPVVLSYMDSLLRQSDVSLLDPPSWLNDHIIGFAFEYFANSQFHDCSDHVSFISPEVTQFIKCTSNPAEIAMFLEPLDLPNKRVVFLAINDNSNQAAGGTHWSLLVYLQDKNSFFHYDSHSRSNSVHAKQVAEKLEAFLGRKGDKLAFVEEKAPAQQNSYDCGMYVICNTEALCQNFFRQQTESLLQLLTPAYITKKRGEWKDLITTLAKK

[8] = molecular target: T4, Sentrin-specific protease 8; type: functional; remark: listed apart in the source
[9] = molecular target: T5, Histone-lysine N-methyltransferase NSD2 (Homo sapiens, UniProt O96028); type: biochemical
T5 sequence (O96028 whole entry): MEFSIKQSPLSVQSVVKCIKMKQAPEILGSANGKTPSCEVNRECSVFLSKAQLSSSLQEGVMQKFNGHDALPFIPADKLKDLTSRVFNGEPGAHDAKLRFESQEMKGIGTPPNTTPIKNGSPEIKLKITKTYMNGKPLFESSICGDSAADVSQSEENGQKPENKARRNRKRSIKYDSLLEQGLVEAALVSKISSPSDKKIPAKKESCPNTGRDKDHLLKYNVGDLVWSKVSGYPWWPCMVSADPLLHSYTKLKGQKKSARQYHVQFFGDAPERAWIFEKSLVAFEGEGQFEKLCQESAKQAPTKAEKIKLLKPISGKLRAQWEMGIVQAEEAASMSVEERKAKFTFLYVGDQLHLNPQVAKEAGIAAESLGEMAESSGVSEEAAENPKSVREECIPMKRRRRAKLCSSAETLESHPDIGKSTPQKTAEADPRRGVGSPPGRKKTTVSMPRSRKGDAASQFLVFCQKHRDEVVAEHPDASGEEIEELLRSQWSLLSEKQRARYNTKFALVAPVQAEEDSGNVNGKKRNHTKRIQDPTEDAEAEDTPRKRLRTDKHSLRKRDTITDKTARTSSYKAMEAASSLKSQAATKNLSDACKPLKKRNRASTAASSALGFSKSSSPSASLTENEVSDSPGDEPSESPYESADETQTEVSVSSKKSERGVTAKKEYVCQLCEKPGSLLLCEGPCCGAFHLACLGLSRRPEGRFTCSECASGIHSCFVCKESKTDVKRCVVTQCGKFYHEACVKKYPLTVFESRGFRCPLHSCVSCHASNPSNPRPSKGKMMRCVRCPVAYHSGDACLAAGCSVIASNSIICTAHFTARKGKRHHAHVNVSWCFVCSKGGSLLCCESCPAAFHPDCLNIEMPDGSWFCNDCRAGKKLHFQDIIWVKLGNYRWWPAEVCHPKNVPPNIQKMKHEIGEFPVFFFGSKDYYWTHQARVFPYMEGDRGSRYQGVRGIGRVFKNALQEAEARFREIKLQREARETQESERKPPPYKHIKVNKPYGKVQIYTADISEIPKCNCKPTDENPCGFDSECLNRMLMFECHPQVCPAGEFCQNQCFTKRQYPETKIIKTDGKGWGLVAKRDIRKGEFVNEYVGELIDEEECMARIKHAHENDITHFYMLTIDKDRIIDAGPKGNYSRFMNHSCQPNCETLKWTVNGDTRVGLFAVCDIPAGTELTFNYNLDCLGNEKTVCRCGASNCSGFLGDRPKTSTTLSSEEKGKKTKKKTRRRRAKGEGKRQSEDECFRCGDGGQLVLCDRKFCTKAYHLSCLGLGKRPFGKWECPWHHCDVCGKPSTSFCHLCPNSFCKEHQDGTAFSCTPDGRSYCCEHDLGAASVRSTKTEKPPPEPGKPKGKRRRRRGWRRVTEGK

[10] = molecular target: T6, Tyrosyl-DNA phosphodiesterase 2 (Homo sapiens, UniProt O95551); assay: human TDP2 enzyme inhibitors, dose response, biochemical, epi absorbance, IC50 (AID 743297)
T6 sequence (O95551 whole entry): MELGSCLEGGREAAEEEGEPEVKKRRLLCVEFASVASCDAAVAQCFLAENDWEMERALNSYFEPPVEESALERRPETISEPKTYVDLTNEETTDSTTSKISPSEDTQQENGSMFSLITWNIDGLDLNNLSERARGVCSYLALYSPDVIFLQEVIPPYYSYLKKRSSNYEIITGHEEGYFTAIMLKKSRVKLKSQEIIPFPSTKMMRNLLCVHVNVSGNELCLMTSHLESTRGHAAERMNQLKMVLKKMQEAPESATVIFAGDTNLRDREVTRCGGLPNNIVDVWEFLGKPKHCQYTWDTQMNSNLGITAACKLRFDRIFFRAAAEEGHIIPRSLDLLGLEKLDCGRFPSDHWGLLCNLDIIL

[11] = molecular target: Glutathione-S-transferase (Schistosoma japonicum, UniProt Q26513); assay: biotin-GST/anti-GST TR-FRET signal inhibitors, dose response, artefact control for Vif-APOBEC3G degradation inhibitor project, biochemical (AID 1117362); type: functional
[12] = HeLa 2N DNA content increase, dose response, cell-based, IC50 (AID 1117349); type: functional
[13] = Concentration-dependent survival of SW480 colon cancer line, luminescence detection with CellTiter-Glo, half-maximal inhibitory concentration (AID 1117338); type: functional
[14] = RKO cell viability reduction, dose response, CellTiter-Glo luminescence (AID 1117322); type: functional
[15] = cytotoxicity toward HCT116 cells – cell-based, CellTiter-Glo luminescence, IC50, dose response (AID 1117332); type: functional; conditions: HCT-116
[16] = SNU-C1 cell viability reduction, dose response, CellTiter-Glo luminescence (AID 1117323); type: functional, cell-based
[17] = cytotoxicity toward Colo320 cells – cell-based, CellTiter-Glo luminescence, IC50, dose response (AID 1117334); type: functional; conditions: COLO 320
[18] = HeLa 4N DNA content increase, dose response, cell-based, IC50 (AID 1117351); type: functional
[19] = cytotoxicity toward HT-29 cells – cell-based, CellTiter-Glo luminescence, IC50, dose response (AID 1117330); type: functional
[20] = CellTiter-Glo luminescent dose response of DLD-1 viability loss (AID 1117352); type: functional
[21] = HCT116 cell viability decrease, GSK3B pretreatment – CellTiter-Glo, IC50, dose response (AID 1117339); type: functional; conditions: HCT-116
[22] = A549 cell cytotoxicity, dose response, CellTiter-Glo luminescence, dry powder, set 17 (AID 1117284); type: functional, cell-based
[23] = HEp-2 cell cytotoxicity, dose response, cytotoxicity control for RSV inhibitor project, HTS (AID 2410); type: functional; conditions: human respiratory syncytial virus
NADPH oxidase 1 = NADPH oxidase 1 (Homo sapiens, UniProt Q9Y5S8); assay: Late-stage luminescence-based cell-based dose response assay to identify inhibitors of NADPH oxidase 1 (NOX1): Synthesized analogs.; type: functional
INS1 = assay: beta cell apoptosis inhibitors, cytokine rescue, dose response, luminescence, retest (AID 449756); type: functional, cell-based; conditions: Rattus norvegicus;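 also: cell death triggered by IL-1 beta plus TNF-alpha plus IFN-gamma mixture; protective hits raise ATP signal compared with cytokine alone wells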

NADPH oxidase 1, sequence (Q9Y5S8 whole entry): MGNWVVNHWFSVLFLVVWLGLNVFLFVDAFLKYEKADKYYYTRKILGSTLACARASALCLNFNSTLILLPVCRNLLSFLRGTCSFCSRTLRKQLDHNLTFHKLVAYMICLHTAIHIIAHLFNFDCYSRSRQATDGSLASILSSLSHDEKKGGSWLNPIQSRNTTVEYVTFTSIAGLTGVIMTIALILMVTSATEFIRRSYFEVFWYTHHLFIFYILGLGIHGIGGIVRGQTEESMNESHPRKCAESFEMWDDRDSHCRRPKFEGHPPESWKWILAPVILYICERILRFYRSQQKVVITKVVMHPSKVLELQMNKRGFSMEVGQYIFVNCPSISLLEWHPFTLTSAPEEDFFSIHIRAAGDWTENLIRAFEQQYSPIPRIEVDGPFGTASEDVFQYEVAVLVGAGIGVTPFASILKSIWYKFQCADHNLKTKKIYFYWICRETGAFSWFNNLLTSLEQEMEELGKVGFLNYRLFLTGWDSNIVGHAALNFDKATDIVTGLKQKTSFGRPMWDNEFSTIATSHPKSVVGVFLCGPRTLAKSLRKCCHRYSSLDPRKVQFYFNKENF
Glutathione-S-transferase, sequence (Q26513 whole entry): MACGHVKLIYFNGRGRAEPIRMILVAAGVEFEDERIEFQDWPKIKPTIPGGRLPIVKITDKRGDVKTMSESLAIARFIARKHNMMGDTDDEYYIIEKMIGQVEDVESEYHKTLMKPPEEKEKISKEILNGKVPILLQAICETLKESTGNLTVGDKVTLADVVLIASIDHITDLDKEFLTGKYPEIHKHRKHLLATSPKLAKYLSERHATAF
Sphingosine 1-phosphate receptor 2, sequence (O95136 whole entry): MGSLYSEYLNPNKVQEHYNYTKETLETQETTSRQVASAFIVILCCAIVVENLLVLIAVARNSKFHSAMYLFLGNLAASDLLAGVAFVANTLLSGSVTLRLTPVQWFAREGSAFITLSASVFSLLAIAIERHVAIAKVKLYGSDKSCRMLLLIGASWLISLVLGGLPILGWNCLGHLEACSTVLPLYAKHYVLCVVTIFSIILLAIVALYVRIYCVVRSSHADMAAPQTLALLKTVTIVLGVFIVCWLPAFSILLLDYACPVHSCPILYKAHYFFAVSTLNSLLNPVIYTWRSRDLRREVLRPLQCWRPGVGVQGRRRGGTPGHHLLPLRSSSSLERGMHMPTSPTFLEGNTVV

- EC50 [1]: > 50 µM (not active)
- IC50 (Bcl-2-related protein A1): > 20 µM (inactive)
- IC50 [2]: 10.5 µM (active)
- IC50 [3]: > 20 µM (inactive)
SMILES: CCC(=O)c1cc2c(C)cc(=O)oc2c(C)c1O

SMILES: CN(C)CCN1C(=O)c2ccccc2N(C)c2ccccc21 [DIBENZEPIN HYDROCHLORIDE]
- IC50 [4]: > 33.3 µM (inactive)

SMILES: Fc1ccc(OCCn2c(=S)[nH]c3ccccc32)cc1
- AC50 [5]: 55.4 µM (active)

- IC50 (Protein skinhead-1): > 100 µM (inactive)
SMILES: CSc1ccc(C2Nc3ccccc3-c3cc(C)nn32)cc1 (configuration not stated)
- CC50 [6]: > 40 µM (active)

SMILES: C[n+]1cccc2cccc([O-])c21
- IC50 [7]: 1.82 µM (active)
- IC50 [8]: 1.01 µM (active)
- AC50 [9]: 15.1 µM (active)
- IC50 [10]: 60 µM (inactive)
- IC50 [11]: 42.6 µM (active)

SMILES: NC(N)=NN=C(/C=C/c1ccc([N+](=O)[O-])o1)/C=C/c1ccc([N+](=O)[O-])o1
- IC50 [12]: > 10 µM (inactive)
- IC50 [13]: 0.0076 µM (active)
- IC50 [14]: 0.0128 µM (active)
- IC50 [15]: 0.136 µM (active)
- IC50 [16]: 1.35 µM (active)
- IC50 [17]: 0.003 µM (active)
- IC50 [18]: > 10 µM (inactive)
- IC50 [19]: 0.003 µM (active)
- IC50 [20]: > 20 µM (inactive)
- IC50 [21]: 0.0237 µM (active)

SMILES: COc1ccc(-c2ccc(CN(C)C[C@@H]3Oc4cc(C#C[C@@H](C)O)ccc4S(=O)(=O)N([C@@H](C)CO)C[C@@H]3C)cc2)cc1
- AC50 [22]: 29.8 µM (active)

SMILES: Cc1ccc2c(c1)Sc1c(ccc3ccccc13)N2
- CC50 [23]: 47.8 µM (active)
- IC50 (NADPH oxidase 1): 1.47 µM (active)
- AC50 (INS1): > 260 µM (inactive)
